Where two headings read alike, the source gives them in different places.
Columns and labels:
Experiment in all cases: Post-emergence foliage spray, pot culture, fresh weight inhibition (Tables 1-48, 51-98, 101-148; 24 days)
Format in all cases: in vivo
Echinochloa caudate = details: Echinochloa, 576 h, read-out: Control effect (%) of B applied alone in corresponding dose
Description: (§1) The above weeds were cultivated by a pot culture method. […] Full and uniform weed seeds were selected, soaked in warm water at 25° C. for 6 hours, and germinated in a 28° C. biochemical incubator (darkness). The weed seeds that had just germinatedwere evenly placed on the surface of the soil and then covered with 0.5-1 cm soil according to the sizes of seeds.
(§2) The technical materials were all dissolved in acetone, and diluted with an aqueous solution containing 0.1% emulsifier Tween-80. The dilution is performed as required.
(§3) A ratio of the active ingredient A to the active ingredient B and amounts thereof in each group depends on the characteristics and toxicity of the two agents, as well as the main application purpose of a corresponding formulation. Based on the pre-tests in this study, the dosage of the active ingredient A and B applied alone and in combination were shown in the tables. Water containing the solvent and emulsifier same with the above groups but free of the agents was used as a blank control.
(§4) In the stage of weeds with 3˜4 leaves, the weeds were thinned out to maintain 15 weeds per pot and 45 weeds for each treatment, then continued to be cultured to 5˜6 leaves stage of grassy weeds, 6˜7 leaves stage of broadleaf weeds, and treated.
(§5) The well-cultured weeds were evenly placed on a platform with an area of 0.5 m^2, and a solution of agents was sprayed on the stems and leaves thereof by the 3WP-2000-type walking spray tower at a dosage of 450 kg/ha and at a spray pressure of 0.3 MPa. After all the solution was sprayed, the valve was closed. After 30 seconds, the door of the spray tower was opened, and the nutritional bowl was taken out. Then the valve was opened, and the spray tube was cleaned by spraying 50 ml of water.
(§6) A pot-culture method was employed. For the cultivation of weeds, please refer to the Section 1.1), and “Pesticide guidelines for laboratory bioactivity tests—herbicides”. As to a method for applying agents, please refer to the section 2.3.2), that is, a foliage treatment was employed. After the treatment, the weeds were routinely cultured in a greenhouse.
(§7) A method for investigating absolute number was employed, wherein whole seedlings of survival weeds were cut off with a blade along the soil surface, and the fresh weight of the weeds was weighed with an analytical balance. For dead weeds, the fresh weight thereof was zero.
(§8) Wherein, in the formula, X represented the fresh weight inhibition rate of the active ingredient A in a dosage of P, and Y represented the fresh weight inhibition rate of the active ingredient B in a dosage of Q.

[1] = tested on: Echinochloa crusgalli var. zelayensis; details: Echinochloa crus-galli, 576 h, read-out: Control effect (%) of B applied alone in corresponding dose; for pest or weed control at 30 g/ha: B 30 g a.i./ha
Description: as §1, §2, §3, §4, §5, §6, §7, §8

Echinochloa oryzoides = details: Echinochloa oryzoides, 576 h, read-out: Control effect (%) of B applied alone in corresponding dose; for pest or weed control at 30 g/ha: 30 g a.i./ha
Description: as §1, §2, §3, §4, §5, §6, §7, §8

[2] = foliar, B 1.875 g a.i./ha, foliage spray, 24 days
[3] = foliar, B 3.75 g a.i./ha, foliage spray, 24 days
[4] = foliar, B 7.5 g a.i./ha, foliage spray, 24 days
[5] = foliar, B 15 g a.i./ha, foliage spray, 24 days

COc1cc(OC)nc(Oc2cccc(Oc3nc(OC)cc(OC)n3)c2C(=O)O)n1 [bispyribac-sodium]
pest or weed control at 1.875 g/ha (Echinochloa caudate; bispyribac-sodium 1.875 g a.i./ha): 5.5% | pest or weed control at 3.75 g/ha (Echinochloa caudate; bispyribac-sodium 3.75 g a.i./ha): 16% | pest or weed control at 7.5 g/ha (Echinochloa caudate; bispyribac-sodium 7.5 g a.i./ha): 44.9% | pest or weed control at 15 g/ha (Echinochloa caudate; bispyribac-sodium 15 g a.i./ha): 62.1% | pest or weed control at 1.875 g/ha [1, 2]: 5.3% | pest or weed control at 3.75 g/ha [1, 3]: 17.4% | pest or weed control at 7.5 g/ha [1, 4]: 43.4% | pest or weed control at 15 g/ha [1, 5]: 62.9% | pest or weed control at 1.875 g/ha (Echinochloa oryzoides; Table 102, 1.875 g a.i./ha): 4.7% | pest or weed control at 3.75 g/ha (Echinochloa oryzoides; Table 102, 3.75 g a.i./ha): 18.2% | pest or weed control at 7.5 g/ha (Echinochloa oryzoides; Table 102, 7.5 g a.i./ha): 44.1% | pest or weed control at 15 g/ha (Echinochloa oryzoides; Table 102, 15 g a.i./ha): 62%

COCc1cnc(C2=NC(C)(C(C)C)C(=O)N2)c(C(=O)O)c1 (stereo not drawn) [imazamox]
pest or weed control at 3.75 g/ha (Echinochloa caudate; imazamox 3.75 g a.i./ha): 7.6% | pest or weed control at 7.5 g/ha (Echinochloa caudate; imazamox 7.5 g a.i./ha): 16.5% | pest or weed control at 15 g/ha (Echinochloa caudate; imazamox 15 g a.i./ha): 24.8% | pest or weed control at 30 g/ha (Echinochloa caudate; imazamox 30 g a.i./ha): 53.8% | pest or weed control at 3.75 g/ha [1, 3]: 6.9% | pest or weed control at 7.5 g/ha [1, 4]: 14.2% | pest or weed control at 15 g/ha [1, 5]: 25.1% | pest or weed control at 30 g/ha ([1]; foliar, foliage spray, 24 days): 54.8% | pest or weed control at 3.75 g/ha (Echinochloa oryzoides; Table 109, 3.75 g a.i./ha): 4% | pest or weed control at 7.5 g/ha (Echinochloa oryzoides; Table 109, 7.5 g a.i./ha): 12.6% | pest or weed control at 15 g/ha (Echinochloa oryzoides; Table 109, 15 g a.i./ha): 27.6% | pest or weed control at 30 g/ha (Echinochloa oryzoides; Table 109): 54.4%

CCS(=O)(=O)c1cccnc1S(=O)(=O)NC(=O)Nc1nc(OC)cc(OC)n1 [rimsulfuron]
pest or weed control at 1.875 g/ha (Echinochloa caudate; rimsulfuron 1.875 g a.i./ha): 5.5% | pest or weed control at 3.75 g/ha (Echinochloa caudate; rimsulfuron 3.75 g a.i./ha): 25.3% | pest or weed control at 7.5 g/ha (Echinochloa caudate; rimsulfuron 7.5 g a.i./ha): 37.9% | pest or weed control at 15 g/ha (Echinochloa caudate; rimsulfuron 15 g a.i./ha): 65.8% | pest or weed control at 1.875 g/ha [1, 2]: 7.7% | pest or weed control at 3.75 g/ha [1, 3]: 25.5% | pest or weed control at 7.5 g/ha [1, 4]: 39.7% | pest or weed control at 15 g/ha [1, 5]: 67.7% | pest or weed control at 1.875 g/ha (Echinochloa oryzoides; Table 106, 1.875 g a.i./ha): 10.3% | pest or weed control at 3.75 g/ha (Echinochloa oryzoides; Table 106, 3.75 g a.i./ha): 26.9% | pest or weed control at 7.5 g/ha (Echinochloa oryzoides; Table 106, 7.5 g a.i./ha): 43.7% | pest or weed control at 15 g/ha (Echinochloa oryzoides; Table 106, 15 g a.i./ha): 69.6%

COc1cnc(OC)n2nc(NS(=O)(=O)c3c(OCC(F)F)cccc3C(F)(F)F)nc12 [penoxsulam]
pest or weed control at 1.875 g/ha (Echinochloa caudate; penoxsulam 1.875 g a.i./ha): 3.8% | pest or weed control at 3.75 g/ha (Echinochloa caudate; penoxsulam 3.75 g a.i./ha): 15.6% | pest or weed control at 7.5 g/ha (Echinochloa caudate; penoxsulam 7.5 g a.i./ha): 46.5% | pest or weed control at 15 g/ha (Echinochloa caudate; penoxsulam 15 g a.i./ha): 69.4% | pest or weed control at 1.875 g/ha [1, 2]: 2.4% | pest or weed control at 3.75 g/ha [1, 3]: 10.9% | pest or weed control at 7.5 g/ha [1, 4]: 48.8% | pest or weed control at 15 g/ha [1, 5]: 70.1% | pest or weed control at 1.875 g/ha (Echinochloa oryzoides; Table 101, 1.875 g a.i./ha): 4.7% | pest or weed control at 3.75 g/ha (Echinochloa oryzoides; Table 101, 3.75 g a.i./ha): 13.8% | pest or weed control at 7.5 g/ha (Echinochloa oryzoides; Table 101, 7.5 g a.i./ha): 47.9% | pest or weed control at 15 g/ha (Echinochloa oryzoides; Table 101, 15 g a.i./ha): 68.4%

Cc1nn(-c2cc(NS(C)(=O)=O)c(Cl)cc2Cl)c(=O)n1C(F)F [sulfentrazone]
pest or weed control at 1.875 g/ha (Echinochloa caudate; Table 97, 1.875 g a.i./ha): 6.6% | pest or weed control at 3.75 g/ha (Echinochloa caudate; Table 97, 3.75 g a.i./ha): 10.8% | pest or weed control at 7.5 g/ha (Echinochloa caudate; Table 97, 7.5 g a.i./ha): 24.5% | pest or weed control at 15 g/ha (Echinochloa caudate; Table 97, 15 g a.i./ha): 52.6% | pest or weed control at 1.875 g/ha ([1]; sulfentrazone 1.875 g a.i./ha): 2.8% | pest or weed control at 3.75 g/ha ([1]; sulfentrazone 3.75 g a.i./ha): 15.4% | pest or weed control at 7.5 g/ha ([1]; sulfentrazone 7.5 g a.i./ha): 26.9% | pest or weed control at 15 g/ha ([1]; sulfentrazone 15 g a.i./ha): 54.1% | pest or weed control at 1.875 g/ha (Echinochloa oryzoides; B 1.875 g a.i./ha): 5.8% | pest or weed control at 3.75 g/ha (Echinochloa oryzoides; B 3.75 g a.i./ha): 18.1% | pest or weed control at 7.5 g/ha (Echinochloa oryzoides; B 7.5 g a.i./ha): 29.7% | pest or weed control at 15 g/ha (Echinochloa oryzoides; B 15 g a.i./ha): 56.1%

COc1cc(OC)nc(NC(=O)NS(=O)(=O)c2ncccc2C(=O)N(C)C)n1 [nicosulfuron]
pest or weed control at 3.75 g/ha (Echinochloa caudate; nicosulfuron 3.75 g a.i./ha): 3.8% | pest or weed control at 7.5 g/ha (Echinochloa caudate; nicosulfuron 7.5 g a.i./ha): 14.3% | pest or weed control at 15 g/ha (Echinochloa caudate; nicosulfuron 15 g a.i./ha): 40.2% | pest or weed control at 30 g/ha (Echinochloa caudate; nicosulfuron 30 g a.i./ha): 58.5% | pest or weed control at 3.75 g/ha [1, 3]: 7.3% | pest or weed control at 7.5 g/ha [1, 4]: 15.4% | pest or weed control at 15 g/ha [1, 5]: 39.3% | pest or weed control at 30 g/ha ([1]; foliar, foliage spray, 24 days): 58.7% | pest or weed control at 3.75 g/ha (Echinochloa oryzoides; Table 104, 3.75 g a.i./ha): 9.9% | pest or weed control at 7.5 g/ha (Echinochloa oryzoides; Table 104, 7.5 g a.i./ha): 18.2% | pest or weed control at 15 g/ha (Echinochloa oryzoides; Table 104, 15 g a.i./ha): 40.5% | pest or weed control at 30 g/ha (Echinochloa oryzoides; Table 104): 62.4%

— patent US20220264878A1, “HERBICIDAL COMPOSITION CONTAINING R-TYPE PYRIDYLOXY CARBOXYLIC ACID DERIVATIVE AND USE THEREOF” (Qingdao Kingagroot Chemical Compound Co., Ltd., priority 2019, published 2022)
